Test results taken from the NIST ThermoML archive (doi:10.1021/je300388b).
Numbers after ± are expanded uncertainties.

Assay: xn = mol fraction of the nth substance listed
Conditions: Liquid

CCCCCCCCCC [decane] + O=C=O
Conditions | mass density [kg/m3]
323.34 K, 11990 kPa, x2 = 0.869 | 755.53 ± 0.55
323.38 K, 14000 kPa, x2 = 0.869 | 767.56 ± 0.55
333.09 K, 10020 kPa, x2 = 0.71 | 736.44 ± 0.54
333.1 K, 11960 kPa, x2 = 0.71 | 741.69 ± 0.54
333.12 K, 8090 kPa, x2 = 0.71 | 730.25 ± 0.54
333.12 K, 17970 kPa, x2 = 0.4698 | 735.23 ± 0.54
333.12 K, 18050 kPa, x2 = 0.71 | 756.13 ± 0.54
333.13 K, 8020 kPa, x2 = 0.2361 | 715.58 ± 0.53
333.13 K, 11990 kPa, x2 = 0.4698 | 726.89 ± 0.54
333.13 K, 14000 kPa, x2 = 0.4698 | 729.82 ± 0.54
333.13 K, 14030 kPa, x2 = 0.2361 | 721.58 ± 0.54
333.13 K, 14050 kPa, x2 = 0.71 | 746.85 ± 0.54
333.13 K, 15960 kPa, x2 = 0.4698 | 732.55 ± 0.54
333.13 K, 16020 kPa, x2 = 0.2361 | 723.45 ± 0.54
333.13 K, 19020 kPa, x2 = 0.2361 | 726.15 ± 0.54
333.14 K, 9930 kPa, x2 = 0.4698 | 723.71 ± 0.54
333.15 K, 10020 kPa, x2 = 0.2361 | 717.65 ± 0.53
333.15 K, 12030 kPa, x2 = 0.2361 | 719.64 ± 0.54
333.15 K, 16040 kPa, x2 = 0.71 | 751.6 ± 0.54
333.15 K, 18020 kPa, x2 = 0.2361 | 725.24 ± 0.54
333.19 K, 7980 kPa, x2 = 0.4698 | 720.48 ± 0.54
333.19 K, 15930 kPa, x2 = 0.869 | 754.21 ± 0.54
333.2 K, 18080 kPa, x2 = 0.869 | 762.91 ± 0.54
333.22 K, 14070 kPa, x2 = 0.869 | 745.06 ± 0.54
343.02 K, 10240 kPa, x2 = 0.71 | 720.54 ± 0.54
343.02 K, 12280 kPa, x2 = 0.71 | 726.49 ± 0.54
343.1 K, 12070 kPa, x2 = 0.4698 | 716.06 ± 0.53
343.11 K, 16090 kPa, x2 = 0.4698 | 722.46 ± 0.54
343.11 K, 19120 kPa, x2 = 0.4698 | 726.87 ± 0.54
343.12 K, 14000 kPa, x2 = 0.71 | 730.99 ± 0.54
343.13 K, 8070 kPa, x2 = 0.4698 | 708.84 ± 0.53
343.13 K, 16030 kPa, x2 = 0.71 | 736.12 ± 0.54
343.13 K, 18000 kPa, x2 = 0.71 | 741.08 ± 0.54
343.14 K, 18000 kPa, x2 = 0.4698 | 725.25 ± 0.54
343.16 K, 18050 kPa, x2 = 0.869 | 743.75 ± 0.54
343.18 K, 9930 kPa, x2 = 0.4698 | 712.24 ± 0.53
343.19 K, 13920 kPa, x2 = 0.4698 | 719 ± 0.54
343.21 K, 12010 kPa, x2 = 0.2361 | 711.78 ± 0.53
343.23 K, 16060 kPa, x2 = 0.869 | 735.77 ± 0.54
343.23 K, 18020 kPa, x2 = 0.2361 | 718.14 ± 0.53
343.24 K, 14010 kPa, x2 = 0.2361 | 713.97 ± 0.53
343.24 K, 16010 kPa, x2 = 0.2361 | 716.11 ± 0.53
343.25 K, 8010 kPa, x2 = 0.2361 | 707.17 ± 0.53
343.25 K, 10010 kPa, x2 = 0.2361 | 709.51 ± 0.53
343.26 K, 19020 kPa, x2 = 0.2361 | 719.17 ± 0.54
352.97 K, 9880 kPa, x2 = 0.71 | 706.61 ± 0.53
352.99 K, 18040 kPa, x2 = 0.869 | 719.9 ± 0.54
353.01 K, 11990 kPa, x2 = 0.71 | 711.36 ± 0.53
353.06 K, 16040 kPa, x2 = 0.4698 | 711.93 ± 0.53
353.06 K, 19020 kPa, x2 = 0.2361 | 711.31 ± 0.53
353.09 K, 14010 kPa, x2 = 0.4698 | 708.37 ± 0.53
353.09 K, 18080 kPa, x2 = 0.4698 | 715.25 ± 0.53
353.1 K, 12020 kPa, x2 = 0.2361 | 703.37 ± 0.53
353.11 K, 10030 kPa, x2 = 0.2361 | 700.96 ± 0.53
353.11 K, 14010 kPa, x2 = 0.2361 | 705.7 ± 0.53
353.12 K, 10090 kPa, x2 = 0.4698 | 700.82 ± 0.53
353.12 K, 17940 kPa, x2 = 0.71 | 725.1 ± 0.54
353.12 K, 18020 kPa, x2 = 0.2361 | 710.21 ± 0.53
353.12 K, 19060 kPa, x2 = 0.4698 | 716.77 ± 0.53
353.13 K, 8010 kPa, x2 = 0.2361 | 698.4 ± 0.53
353.13 K, 8040 kPa, x2 = 0.4698 | 696.42 ± 0.53
353.13 K, 12050 kPa, x2 = 0.4698 | 704.69 ± 0.53
353.13 K, 16020 kPa, x2 = 0.2361 | 707.98 ± 0.53
353.14 K, 15980 kPa, x2 = 0.71 | 719.92 ± 0.54
353.26 K, 14130 kPa, x2 = 0.71 | 715.78 ± 0.54
362.92 K, 12050 kPa, x2 = 0.71 | 698.95 ± 0.53
362.99 K, 18090 kPa, x2 = 0.71 | 712.19 ± 0.54
363.08 K, 16050 kPa, x2 = 0.71 | 707.18 ± 0.53
363.28 K, 14100 kPa, x2 = 0.71 | 702.89 ± 0.53
